Data on 18 compounds can be found in patent US9376425B2, “Heterocyclic compounds as MDM2 inhibitors for the treatment of cancer” (AMGEN INC., priority 2011, dated 2016).

One may read the IC50 as the concentration that gives 50% inhibition.

The target in the test is T1, human MDM2 (GST-hMDM2 1-188), interaction with biotinylated-p53 (1-83) (Homo sapiens, UniProt Q00987).
T1 construct: Amino acid residues 1-188 of human MDM2 were expressed; made in house; host or cells: Escherichia coli
T1 sequence (Q00987 1-188): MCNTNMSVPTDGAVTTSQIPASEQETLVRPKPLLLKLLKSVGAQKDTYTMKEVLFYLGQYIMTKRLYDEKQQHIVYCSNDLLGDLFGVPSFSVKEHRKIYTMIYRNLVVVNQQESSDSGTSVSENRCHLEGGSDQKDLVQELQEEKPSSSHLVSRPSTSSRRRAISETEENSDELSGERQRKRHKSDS
As to the kind of experiment: improved HTRF assay (HTRF2 assay), inhibition of HDM2-p53 interaction. The test is classed as binding. To be noted: 0.2 nM GST-hMDM2, 0.5 nM biotinylated-p53, 100 mM KF. In outline:
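Time-resolved fluorescence (HTRF) read after >4 h equilibration with SA-XLent/anti-GST cryptate/KF detection reagents. Reaction: compound plus GST-hMDM2 for 20 min at room temperature, then E. coli-expressed biotinylated p53 residues 1-83 for 60 min, 2% DMSO final. Inhibition expressed versus nutlin-3.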
(Time-resolved FRET reads energy transfer from a long-lived donor to a nearby acceptor.)
In the case of `C[C@@H](CS(=O)(=O)C(C)(C)C)N1C(=O)[C@@H](CC(=O)NS(C)(=O)=O)O[C@H](c2cccc(Cl)c2)[C@H]1c1ccc(Cl)cc1` (single isomer, unassigned) [Example 238], half-maximal inhibition (IC50) was put at 1 nM. Then `CC[C@@H](CN(c1ccccc1F)S(=O)(=O)C1CC1)N1C(=O)[C@H](CC(=O)NS(C)(=O)=O)O[C@H](c2cccc(Cl)c2)[C@H]1c1ccc(Cl)cc1` (single isomer, unassigned) [Example 239, 2-((2S,5R,6R)-6-(3-chlorophenyl)-5-(4-chlorophenyl)-4-((S)-1-(N-(2-fluorophenyl)cyclopropanesulfonamido)butan-2-yl)-3-oxomorpholin-2-yl)-N-(methylsulfonyl)acetamide or 2-((2R,5R,6R)-6-(3-chlorophenyl)-5-(4-chlorophenyl)-4-((S)-1-(N-(2-fluorophenyl)cyclopropanesulfonamido)butan-2-yl)-3-oxomorpholin-2-yl)-N-(methylsulfonyl)acetamide], with less than 1 nM. `CC[C@@H](CN(c1ccccc1F)S(=O)(=O)C1CC1)N1C(=O)[C@@H](CC(=O)NS(C)(=O)=O)O[C@H](c2cccc(Cl)c2)[C@H]1c1ccc(Cl)cc1` (single isomer, unassigned) [Example 240, 2-((2R,5R,6R)-6-(3-chlorophenyl)-5-(4-chlorophenyl)-4-((S)-1-(N-(2-fluorophenyl)cyclopropanesulfonamido)butan-2-yl)-3-oxomorpholin-2-yl)-N-(methylsulfonyl)acetamide or 2-((2S,5R,6R)-6-(3-chlorophenyl)-5-(4-chlorophenyl)-4-((S)-1-(N-(2-fluorophenyl)cyclopropanesulfonamido)butan-2-yl)-3-oxomorpholin-2-yl)-N-(methylsulfonyl)acetamide] showed an IC50 of 11 nM. Then `CC[C@@H](CN(c1ccccc1F)S(=O)(=O)C1CC1)N1C(=O)[C@H](CC(N)=O)O[C@H](c2cccc(Cl)c2)[C@H]1c1ccc(Cl)cc1` (single isomer, unassigned) [Example 241, 2-((2S,5R,6R)-6-(3-chlorophenyl)-5-(4-chlorophenyl)-4-((S)-1-(N-(2-fluorophenyl)cyclopropanesulfonamido)butan-2-yl)-3-oxomorpholin-2-yl)acetamide or 2-((2R,5R,6R)-6-(3-chlorophenyl)-5-(4-chlorophenyl)-4-((S)-1-(N-(2-fluorophenyl)cyclopropanesulfonamido)butan-2-yl)-3-oxomorpholin-2-yl)acetamide], with 1 nM. As to `CC[C@@H](CN(c1ccccc1F)S(=O)(=O)C1CC1)N1C(=O)[C@@H](CC(N)=O)O[C@H](c2cccc(Cl)c2)[C@H]1c1ccc(Cl)cc1` (single isomer, unassigned) [Example 242, 2-((2R,5R,6R)-6-(3-chlorophenyl)-5-(4-chlorophenyl)-4-((S)-1-(N-(2-fluorophenyl)cyclopropanesulfonamido)butan-2-yl)-3-oxomorpholin-2-yl)acetamide or 2-((2S,5R,6R)-6-(3-chlorophenyl)-5-(4-chlorophenyl)-4-((S)-1-(N-(2-fluorophenyl)cyclopropanesulfonamido)butan-2-yl)-3-oxomorpholin-2-yl)acetamide], inhibition was half-maximal at 2 nM (IC50). To `CC[C@@H](CN(C)S(=O)(=O)C1CC1)N1C(=O)[C@@H](Cc2nnn[nH]2)O[C@H](c2cccc(Cl)c2)[C@H]1c1ccc(Cl)cc1` (single isomer, unassigned) [Example 243, N-((S)-2-((2R,5R,6R)-2-((1H-tetrazol-5-yl)methyl)-6-(3-chlorophenyl)-5-(4-chlorophenyl)-3-oxomorpholino)butyl)-N-methylcyclopropanesulfonamide or N-((S)-2-((2S,5R,6R)-2-((1H-tetrazol-5-yl)methyl)-6-(3-chlorophenyl)-5-(4-chlorophenyl)-3-oxomorpholino)butyl)-N-methylcyclopropanesulfonamide] belongs 1 nM; to `CC[C@@H](CN(C)S(=O)(=O)C1CC1)N1C(=O)[C@H](Cc2nnn[nH]2)O[C@H](c2cccc(Cl)c2)[C@H]1c1ccc(Cl)cc1` (single isomer, unassigned) [Example 244, N-((S)-2-((2S,5R,6R)-2-((1H-tetrazol-5-yl)methyl)-6-(3-chlorophenyl)-5-(4-chlorophenyl)-3-oxomorpholino)butyl)-N-methylcyclopropanesulfonamide or N-((S)-2-((2R,5R,6R)-2-((1H-tetrazol-5-yl)methyl)-6-(3-chlorophenyl)-5-(4-chlorophenyl)-3-oxomorpholino)butyl)-N-methylcyclopropanesulfonamide], 1 nM; to `CC[C@@H](CS(=O)(=O)C(C)(C)C)N1C(=O)[C@@H](CC(=O)CO)O[C@H](c2cccc(Cl)c2)[C@H]1c1ccc(Cl)cc1` (single isomer, unassigned) [Example 245, (2R,5R,6R)-4-((S)-1-(tert-butylsulfonyl)butan-2-yl)-6-(3-chlorophenyl)-5-(4-chlorophenyl)-2-(3-hydroxy-2-oxopropyl)morpholin-3-one or (2S,5R,6R)-4-((S)-1-(tert-butylsulfonyl)butan-2-yl)-6-(3-chlorophenyl)-5-(4-chlorophenyl)-2-(3-hydroxy-2-oxopropyl)morpholin-3-one], 9 nM. Then `CC[C@@H](CS(=O)(=O)CCN(C)C)N1C(=O)[C@@H](CC(=O)O)O[C@H](c2cccc(Cl)c2)[C@H]1c1ccc(Cl)cc1` (single isomer, unassigned) [Example 247, 2-((2R,5R,6R)-6-(3-chlorophenyl)-5-(4-chlorophenyl)-4-((S)-1-((2-(dimethylamino)ethyl)sulfonyl)butan-2-yl)-3-oxomorpholin-2-yl)acetic acid or 2-((2S,5R,6R)-6-(3-chlorophenyl)-5-(4-chlorophenyl)-4-((S)-1-((2-(dimethylamino)ethyl)sulfonyl)butan-2-yl)-3-oxomorpholin-2-yl)acetic acid], with 3 nM; and `CC[C@@H](CS(=O)(=O)CCN(C)C)N1C(=O)[C@H](CC(=O)O)O[C@H](c2cccc(Cl)c2)[C@H]1c1ccc(Cl)cc1` (single isomer, unassigned) [Example 248, 2-((2S,5R,6R)-6-(3-chlorophenyl)-5-(4-chlorophenyl)-4-((S)-1-((2-(dimethylamino)ethyl)sulfonyl)butan-2-yl)-3-oxomorpholin-2-yl)acetic acid or 2-((2R,5R,6R)-6-(3-chlorophenyl)-5-(4-chlorophenyl)-4-((S)-1-((2-(dimethylamino)ethyl)sulfonyl)butan-2-yl)-3-oxomorpholin-2-yl)acetic acid], with 8 nM; and `O=C(O)C[C@H]1OC(c2cccc(Cl)c2)C(c2ccc(Cl)cc2)N([C@H](CN(c2c(F)cccc2F)S(=O)(=O)C2CC2)C2CC2)C1=O` (single isomer, unassigned) [Example 250], with less than 1 nM. To `O=C(O)C[C@H]1O[C@H](c2cccc(Cl)c2)[C@@H](c2ccc(Cl)cc2)N([C@H](CN(c2c(F)cccc2F)S(=O)(=O)C2CC2)C2CC2)C1=O` (single isomer, unassigned) [Example 251, 2-((2R,5R,6R)-6-(3-chlorophenyl)-5-(4-chlorophenyl)-4-((S)-1-cyclopropyl-2-(N-(2,6-difluorophenyl)cyclopropanesulfonamido)ethyl)-3-oxomorpholin-2-yl)acetic acid or 2-((2S,5R,6R)-6-(3-chlorophenyl)-5-(4-chlorophenyl)-4-((S)-1-cyclopropyl-2-(N-(2,6-difluorophenyl)cyclopropanesulfonamido)ethyl)-3-oxomorpholin-2-yl)acetic acid] belongs less than 1 nM; to `CC[C@@H](CN(c1ccccc1F)S(=O)(=O)C1CC1)N1C(=O)[C@@H]([C@@H](C)C(=O)O)O[C@H](c2cccc(Cl)c2)[C@H]1c1ccc(Cl)cc1` (single isomer, unassigned) [Example 252], 1 nM; to `CC[C@@H](CN(c1ccccc1F)S(=O)(=O)C1CC1)N1C(=O)[C@@H]([C@@H](C)C(=O)O)O[C@H](c2cccc(Cl)c2)[C@H]1c1ccc(Cl)cc1` (single isomer, unassigned) [Example 253], 18 nM.

In the case of `CC[C@@H](CN(c1ccccc1F)S(=O)(=O)C1CC1)N1C(=O)[C@@H]([C@@H](C)C(=O)O)O[C@H](c2cccc(Cl)c2)[C@H]1c1ccc(Cl)cc1` (single isomer, unassigned) [Example 254], the IC50 was 1 nM. `CC[C@@H](CN(c1ccccc1F)S(=O)(=O)C1CC1)N1C(=O)[C@@H]([C@@H](C)C(=O)O)O[C@H](c2cccc(Cl)c2)[C@H]1c1ccc(Cl)cc1` (single isomer, unassigned) [Example 255] registered an IC50 of 4 nM. Against the preceding compound, the IC50 is about 4-fold higher. Then `NC(=O)C[C@@H]1O[C@H](c2cccc(Cl)c2)[C@@H](c2ccc(Cl)cc2)N([C@H](CN(c2ccccc2F)S(=O)(=O)C2CC2)C2CC2)C1=O` (single isomer, unassigned) [Example 256, 2-((2S,5R,6R)-6-(3-chlorophenyl)-5-(4-chlorophenyl)-4-((S)-1-cyclopropyl-2-(N-(2-fluorophenyl)cyclopropanesulfonamido)ethyl)-3-oxomorpholin-2-yl)acetamide or 2-((2R,5R,6R)-6-(3-chlorophenyl)-5-(4-chlorophenyl)-4-((S)-1-cyclopropyl-2-(N-(2-fluorophenyl)cyclopropanesulfonamido)ethyl)-3-oxomorpholin-2-yl)acetamide], with less than 1 nM; and `NC(=O)C[C@H]1O[C@H](c2cccc(Cl)c2)[C@@H](c2ccc(Cl)cc2)N([C@H](CN(c2ccccc2F)S(=O)(=O)C2CC2)C2CC2)C1=O` (single isomer, unassigned) [Example 257, 2-((2R,5R,6R)-6-(3-chlorophenyl)-5-(4-chlorophenyl)-4-((S)-1-cyclopropyl-2-(N-(2-fluorophenyl)cyclopropanesulfonamido)ethyl)-3-oxomorpholin-2-yl)acetamide or 2-((2S,5R,6R)-6-(3-chlorophenyl)-5-(4-chlorophenyl)-4-((S)-1-cyclopropyl-2-(N-(2-fluorophenyl)cyclopropanesulfonamido)ethyl)-3-oxomorpholin-2-yl)acetamide], with less than 1 nM.
